Here are results for seven compounds from PubChem BioAssay AID1919004 (Molecular Pharmacology Branch, DTP, NCI, 2023).

In this assay the test system is 883617-216-R-J1-PDC complex spheroids, growth, % test/control. Put plainly: Anticancer human tumor 883617-216-R-J1-PDC patient-derived bladder carcinoma cell line growth inhibition [AhR]. As to conditions: for viability, T/C: stronger effect = lower value. The method in brief:
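Spheroids combined tumor cells with HUVEC endothelial cells and human MSCs as stroma. AhR antagonists were paired with standard or investigational drugs, each dosed in half-log steps down from near clinical Cmax, or from 10 microM where Cmax was unknown.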

Setting [1] is: curve of first compound, second compound 0.1 µM.
Setting [2] is: curve of first compound, second compound 0.316 µM.
Setting [3] is: curve of first compound, second compound 1 µM.
The mark [4] stands for this setting: curve of first compound, second compound 3.16 µM.
Setting [5] is: curve of first compound, second compound 10 µM.
[6] abbreviates: second compound 0.1 µM, first compound 0.0316 µM.
Setting [7] is: second compound 0.1 µM, first compound 0.1 µM.
[8] abbreviates: second compound 0.1 µM, first compound 0.316 µM.
[9] abbreviates: second compound 0.1 µM, first compound 1 µM.
[10] abbreviates: second compound 0.1 µM, first compound 3.16 µM.
The mark [11] stands for this setting: second compound 0.1 µM, first compound 10 µM.
The mark [12] stands for this setting: second compound 0.316 µM, first compound 0.0316 µM.
Setting [13] is: second compound 0.316 µM, first compound 0.1 µM.
Where [14] appears, read: second compound 0.316 µM, first compound 0.316 µM.
[15] abbreviates: second compound 0.316 µM, first compound 1 µM.
The mark [16] stands for this setting: second compound 0.316 µM, first compound 3.16 µM.
Where [17] appears, read: second compound 0.316 µM, first compound 10 µM.
[18] abbreviates: second compound 1 µM, first compound 0.0316 µM.
[19] abbreviates: second compound 1 µM, first compound 0.1 µM.
Setting [20] is: second compound 1 µM, first compound 0.316 µM.
The mark [21] stands for this setting: second compound 1 µM, first compound 1 µM.
The mark [22] stands for this setting: second compound 1 µM, first compound 3.16 µM.
Where [23] appears, read: second compound 1 µM, first compound 10 µM.
[24] abbreviates: second compound 3.16 µM, first compound 0.0316 µM.
Setting [25] is: second compound 3.16 µM, first compound 0.1 µM.
Where [26] appears, read: second compound 3.16 µM, first compound 0.316 µM.
Where [27] appears, read: second compound 3.16 µM, first compound 1 µM.
The mark [28] stands for this setting: second compound 3.16 µM, first compound 3.16 µM.
The mark [29] stands for this setting: second compound 3.16 µM, first compound 10 µM.
Setting [30] is: second compound 10 µM, first compound 0.0316 µM.
The mark [31] stands for this setting: second compound 10 µM, first compound 0.1 µM.
[32] abbreviates: second compound 10 µM, first compound 0.316 µM.
The mark [33] stands for this setting: second compound 10 µM, first compound 1 µM.
Where [34] appears, read: second compound 10 µM, first compound 3.16 µM.
Where [35] appears, read: second compound 10 µM, first compound 10 µM.

Values joined by “and” are separate entries in the source; they are usually repeats but may differ in a detail not shown here. Identical values can stand only once.

One may read the IC50 as the concentration at which inhibition is half-maximal. In general, viability, T/C refers to the result in the treated group divided by that in the control group, in per cent.
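Further: exposure lasted 7 days after dosing on day 3 of spheroid growth.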

For `COc1cccc2c1C(=O)c1c(O)c3c(c(O)c1C2=O)CC(O)(C(=O)CO)CC3OC1CC(N)C(O)C(C)O1` (stereo unspecified) + Cc1ccccc1N=Nc1ccc(NC(=O)c2ccnn2C)c(C)c1, the concentration for half-maximal inhibition (IC50) amounted to 284 nM under setting [1]; 255 nM under setting [2]; 339 nM under setting [3]; 258 nM under setting [4]; 380 nM under setting [5]. The viability, T/C reads like this: under setting [6], 66.5%; under setting [7], 60.6%; under setting [8], 48.4%; under setting [9], 22.7%; under setting [10], 0.11%; under setting [11], 0.14%. Moreover, the viability, T/C is 67.5% under setting [12]; 61.3% under setting [13]; 47.5% under setting [14]; 16.7% under setting [15]; 0.12% under setting [16]; 0.15% under setting [17]. Also, the viability, T/C was 56.8% under setting [18]; 63.4% under setting [19]; 51.5% under setting [20]; 16.5% under setting [21]; 0.12% under setting [22]; 0.65% under setting [23]. Also, the viability, T/C reads like this: under setting [24], 66.5%; under setting [25], 56%; under setting [26], 48.7%; under setting [27], 11.9%; under setting [28], 0.12%; under setting [29], 0.5%. The viability, T/C was 58.6% under setting [30]; 57.3% under setting [31]; 57.8% under setting [32]; 8.97% under setting [33]; 0.18% under setting [34]; 0.21% under setting [35].
For `CCc1c2c(nc3ccc(O)cc13)-c1cc3c(c(=O)n1C2)COC(=O)[C@]3(O)CC`, the viability, T/C was 88.9% and 98.2% and 69% (compound 0.000949 µM); 82.4% and 85.1% and 111% (compound 0.003 µM); 72.4% and 70.3% and 75.6% (compound 0.00949 µM); 79.9% and 64.4% and 83.5% (compound 0.03 µM); 68.2% and 57.1% and 75.1% (compound 0.0949 µM); 44.6% and 41% and 84.5% (compound 0.3 µM). Further, where the note is “curve of compound”, the IC50 was 234 nM and 137 nM and > 300 nM.
In the case of `COc1cc(C2c3cc4c(cc3C(OC3OC5COC(C)OC5C(O)C3O)C3COC(=O)C23)OCO4)cc(OC)c1O` (stereo unspecified) + CC(CO)NC(=O)c1cc(-c2ccc(Cl)cc2)nn(-c2cnn(C)c2)c1=O, the IC50 under setting [1] was > 10000 nM; the IC50 under setting [2] was > 10000 nM; the 50% inhibitory concentration (IC50) under setting [3] is > 10000 nM; the IC50 under setting [4] is > 10000 nM; the IC50 under setting [5] is > 10000 nM. Also, the viability, T/C runs as follows: under setting [6], 75.2%; under setting [7], 90.2%; under setting [8], 108%; under setting [9], 66.3%; under setting [10], 84.1%; under setting [11], 60.1%. In addition, the viability, T/C is 63.8% under setting [12]; 84.5% under setting [13]; 85.3% under setting [14]; 67.7% under setting [15]; 101% under setting [16]; 69.4% under setting [17]. Moreover, the viability, T/C is, setting by setting: under setting [18], 60.3%; under setting [19], 76.7%; under setting [20], 90%; under setting [21], 83.5%; under setting [22], 84.3%; under setting [23], 53.3%. Also, the viability, T/C reads like this: under setting [24], 81.1%; under setting [25], 85.8%; under setting [26], 74.3%; under setting [27], 69.3%; under setting [28], 65%; under setting [29], 102%. The viability, T/C reads like this: under setting [30], 91.7%; under setting [31], 70.8%; under setting [32], 89.6%; under setting [33], 81.3%; under setting [34], 53.5%; under setting [35], 77.3%.
With `CC1(C)CCC(CN2CCN(c3ccc(C(=O)NS(=O)(=O)c4ccc(NCC5CCOCC5)c([N+](=O)[O-])c4)c(Oc4cnc5[nH]ccc5c4)c3)CC2)=C(c2ccc(Cl)cc2)C1`, the viability, T/C is 97.3% and 96.7% and 85.8% (compound 0.0316 µM); 105% and 106% and 130% (compound 0.1 µM); 101% and 98.7% and 110% (compound 0.316 µM); 101% and 98.4% and 92.5% (compound 1 µM); 99.6% and 105% and 72.3% (compound 3.16 µM); 30.6% and 64.7% and 33.8% (compound 10 µM). For the same compound, the half-inhibitory concentration (IC50) (curve of compound) was 7230 nM and > 10000 nM and 6070 nM.
For the compound `O=C(c1cc(Cc2n[nH]c(=O)c3ccccc23)ccc1F)N1CCN(C(=O)C2CC2)CC1`, the viability, T/C runs as follows: (compound 0.0316 µM) 101% and 100% and 93%; (compound 0.1 µM) 89.1% and 106% and 100%; (compound 0.316 µM) 95.9% and 94.9% and 112%; (compound 1 µM) 85.9% and 97.1% and 102%; (compound 3.16 µM) 88% and 93.1% and 105%; (compound 10 µM) 70.5% and 76.4% and 105%. In addition, the half-inhibitory concentration (IC50) (curve of compound) is > 10000 nM.
For `O=C(c1cc(Cc2n[nH]c(=O)c3ccccc23)ccc1F)N1CCN(C(=O)C2CC2)CC1` + Cc1cncc(-c2nc(NCCc3c[nH]c4ccccc34)c3ncn(C(C)C)c3n2)c1, the IC50 reads like this: under setting [1], > 10000 nM; under setting [2], > 10000 nM; under setting [3], > 10000 nM; under setting [4], > 10000 nM; under setting [5], > 10000 nM. Moreover, the viability, T/C under setting [6] is 81.1%; the viability, T/C under setting [7] is 89.9%; the viability, T/C under setting [8] is 76.4%; the viability, T/C under setting [9] is 79.5%; the viability, T/C under setting [10] was 70.8%; the viability, T/C under setting [11] is 83.7%. Also, the viability, T/C was 93.5% under setting [12]; 86.9% under setting [13]; 79.1% under setting [14]; 78.9% under setting [15]; 77.9% under setting [16]; 71.7% under setting [17]. In addition, the viability, T/C runs as follows: under setting [18], 90%; under setting [19], 90.9%; under setting [20], 91%; under setting [21], 78.9%; under setting [22], 87%; under setting [23], 80%. Besides, the viability, T/C reads like this: under setting [24], 99.9%; under setting [25], 94.8%; under setting [26], 98.4%; under setting [27], 89.6%; under setting [28], 101%; under setting [29], 71.9%. The viability, T/C by setting is: under setting [30], 53.8%; under setting [31], 54.9%; under setting [32], 50.4%; under setting [33], 49.6%; under setting [34], 49.3%; under setting [35], 54.4%.
In the case of `Nc1ccccc1NC(=O)c1ccc(CNC(=O)OCc2cccnc2)cc1` + Cc1cncc(-c2nc(NCCc3c[nH]c4ccccc34)c3ncn(C(C)C)c3n2)c1, the concentration for half-maximal inhibition (IC50) under setting [1] was found to be 607 nM; the half-inhibitory concentration (IC50) under setting [2] stood at 664 nM; the concentration for half-maximal inhibition (IC50) under setting [3] amounted to 834 nM; the concentration for half-maximal inhibition (IC50) under setting [4] was found to be 1040 nM; the half-inhibitory concentration (IC50) under setting [5] is < 31.6 nM. In addition, the viability, T/C is 81.2% under setting [6]; 78.8% under setting [7]; 66.7% under setting [8]; 37% under setting [9]; 11.3% under setting [10]; 1.5% under setting [11]. The viability, T/C is, setting by setting: under setting [12], 88.1%; under setting [13], 79.7%; under setting [14], 68.5%; under setting [15], 40.1%; under setting [16], 14.4%; under setting [17], 0.94%. The viability, T/C is, setting by setting: under setting [18], 96.6%; under setting [19], 93.7%; under setting [20], 77.8%; under setting [21], 44.6%; under setting [22], 14.1%; under setting [23], 0.83%. Further, the viability, T/C under setting [24] was 109%; the viability, T/C under setting [25] is 105%; the viability, T/C under setting [26] is 83.2%; the viability, T/C under setting [27] was 51.1%; the viability, T/C under setting [28] is 18.9%; the viability, T/C under setting [29] was 0.37%. Moreover, the viability, T/C under setting [30] is 41.6%; the viability, T/C under setting [31] was 42.5%; the viability, T/C under setting [32] was 35.8%; the viability, T/C under setting [33] is 21.3%; the viability, T/C under setting [34] was 11.1%; the viability, T/C under setting [35] was 0.35%.
